Patent US10750742B2, “Pesticidally active pyrazole derivatives” (SYNGENTA PARTICIPATIONS AG, priority 2015, dated 2020)
Read-outs that look alike come from different tables or passages of the source.

Assays:
Format in all cases: in vivo
Spodoptera littoralis = Spodoptera littoralis (Egyptian cotton leaf worm), cotton leaf disc spray test; settings: foliar, 72 h, read-out: control (at least one of mortality, anti-feedant effect, growth inhibition); for percent control (mortality, anti-feedant effect or growth inhibition) at 200 ppm: application rate 200 ppm, L1 larvae, 3 days after infestation
Protocol: Spodoptera littoralis (Egyptian Cotton Leaf Worm)
Cotton leaf discs were placed on agar in 24-well microtiter plates and sprayed with aqueous test solutions prepared from 10′000 ppm DMSO stock solutions. After drying the leaf discs were infested with five L1 larvae. The samples were assessed for mortality, anti-feedant effect, and growth inhibition in comparison to untreated samples 3 days after infestation. Control of Spodoptera littoralis by a test sample is when at least one of mortality, anti-feedant effect, and growth inhibition is higher than the untreated sample.

Plutella xylostella = Plutella xylostella (diamond back moth), artificial diet test; settings: 120 h, read-out: control (mortality and growth inhibition)
Protocol: Plutella xylostella (Diamond Back Moth):
24-well microtiter plates with artificial diet were treated with aqueous test solutions prepared from 10′000 ppm DMSO stock solutions by pipetting. After drying, the plates were infested with L2 larvae (10 to 15 per well). The samples were assessed for mortality and growth inhibition in comparison to untreated samples 5 days after infestation.

Diabrotica balteata = Diabrotica balteata (corn root worm), maize sprout test; settings: 96 h, read-out: control (mortality and growth inhibition)
Protocol: Diabrotica balteata, (Corn Root Worm)
Maize sprouts, placed on an agar layer in 24-well microtiter plates were treated with aqueous test solutions prepared from 10′000 ppm DMSO stock solutions by spraying. After drying, the plates were infested with L2 larvae (6 to 10 per well). The samples were assessed for mortality and growth inhibition in comparison to untreated samples 4 days after infestation.

Thrips tabaci = Thrips tabaci (onion thrips), sunflower leaf disc test; settings: foliar, 144 h, read-out: control (mortality)
Protocol: Thrips tabaci (Onion Thrips):
Sunflower leaf discs were placed on agar in 24-well microtiter plates and sprayed with aqueous test solutions prepared from 10′000 ppm DMSO stock solutions. After drying the leaf discs were infested with a thrips population of mixed ages. The samples were assessed for mortality 6 days after infestation.

Tetranychus urticae = Tetranychus urticae (two-spotted spider mite), bean leaf disc test; settings: foliar, 192 h, read-out: control (mortality on mixed population, mobile stages)
Protocol: Tetranychus urticae (Two-Spotted Spider Mite):
Bean leaf discs on agar in 24-well microtiter plates were sprayed with aqueous test solutions prepared from 10′000 ppm DMSO stock solutions. After drying the leaf discs were infested with a mite population of mixed ages. The samples were assessed for mortality on mixed population (mobile stages) 8 days after infestation.

Euschistus heros = Euschistus heros (neotropical brown stink bug), soybean leaf test; settings: 120 h, read-out: effect in at least one of the two categories (mortality or growth inhibition); for percent effect (mortality or growth inhibition) at 200 ppm: application rate 200 ppm, N2 nymphs, 5 days after infestation
Protocol: Euschistus heros (Neotropical Brown Stink Bug):
Soybean leaves on agar in 24-well microtiter plates were sprayed with aqueous test solutions prepared from 10′000 ppm DMSO stock solutions. After drying the leaves were infested with N2 nymphs. The samples were assessed for mortality and growth inhibition in comparison to untreated samples 5 days after infestation.

Myzus persicae = Myzus persicae (green peach aphid), sucrose solution / Parafilm test; settings: 120 h
Text: Myzus persicae (Green Peach Aphid):
Test compounds were applied by pipette into 24 well plates and mixed with Sucrose solution. Application rate: 12.5 ppm. The plates were closed with a stretched parafilm. A plastic stencil with 24 holes is placed onto the plate and infested pea seedlings were placed directly on the Parafilm. The infested plate is closed with a gel blotting paper and another plastic stencil and then turned upside down. 5 days after infestation the samples were checked on mortality.

[1] = application rate 200 ppm, L2 larvae, 5 days after infestation
[2] = application rate 200 ppm, L2 larvae, 4 days after infestation
[3] = application rate 200 ppm, mixed ages, 6 days after infestation
[4] = application rate 200 ppm, 8 days after infestation
[5] = test rate of 12 ppm, sucrose solution, 5 days after infestation, read-out: mortality

Cn1nc(OC(F)(F)C(F)C(F)(F)F)c(C(F)(F)F)c1-n1cc(-c2ccc(Cl)c(C(=O)N(/C(F)=C(\F)C(F)(F)F)C3(C#N)CC3)c2)cn1 (stereo not shown) [compound 7]
≥ 80%: percent control (mortality, anti-feedant effect or growth inhibition) at 200 ppm (Spodoptera littoralis) | mortality at 200 ppm (Plutella xylostella; [1]) | mortality at 200 ppm (Diabrotica balteata; [2]) | mortality at 200 ppm (Thrips tabaci; [3]) | mortality at 200 ppm (Tetranychus urticae; [4])

CCNC(=O)c1cc(-c2cnn(-c3c(C(F)(F)F)c(OC(F)(F)C(F)C(F)(F)F)nn3C)c2)ccc1Cl (stereo not shown) [compound 9]
≥ 80%: percent control (mortality, anti-feedant effect or growth inhibition) at 200 ppm (Spodoptera littoralis) | mortality at 200 ppm (Plutella xylostella; [1]) | mortality at 200 ppm (Diabrotica balteata; [2]) | mortality at 200 ppm (Thrips tabaci; [3]) | mortality at 200 ppm (Tetranychus urticae; [4]) | percent effect (mortality or growth inhibition) at 200 ppm (Euschistus heros) | mortality at 12 ppm (Myzus persicae; [5])

Cn1nc(OC(F)(F)C(F)C(F)(F)F)c(C(F)(F)F)c1-n1cc(-c2ccc(Cl)c(C(=O)NCC#N)c2)cn1 (stereo not shown) [compound 10]
≥ 80%: percent control (mortality, anti-feedant effect or growth inhibition) at 200 ppm (Spodoptera littoralis) | mortality at 200 ppm (Plutella xylostella; [1]) | mortality at 200 ppm (Diabrotica balteata; [2]) | mortality at 200 ppm (Thrips tabaci; [3]) | mortality at 200 ppm (Tetranychus urticae; [4]) | mortality at 12 ppm (Myzus persicae; [5])

Cn1nc(OC(F)(F)C(F)=C(C(F)(F)F)C(F)(F)F)c(C(F)(F)F)c1-n1cc(-c2ccc(Cl)c(C(=O)NC3(C#N)CC3)c2)cn1 [compound 14]
≥ 80%: mortality at 200 ppm (Tetranychus urticae; [4])

Cn1nc(OS(=O)(=O)C(F)(F)F)c(C(F)(F)F)c1-n1cc(-c2ccc(Cl)c(C(=O)NC3(C#N)CC3)c2)cn1 [compound 16]
≥ 80%: percent control (mortality, anti-feedant effect or growth inhibition) at 200 ppm (Spodoptera littoralis) | mortality at 200 ppm (Plutella xylostella; [1]) | mortality at 200 ppm (Diabrotica balteata; [2]) | mortality at 200 ppm (Thrips tabaci; [3]) | mortality at 200 ppm (Tetranychus urticae; [4]) | percent effect (mortality or growth inhibition) at 200 ppm (Euschistus heros)

Cn1nc(OCCCCC(F)=C(F)F)c(C(F)(F)F)c1-n1cc(-c2ccc(Cl)c(C(=O)NC3(C#N)CC3)c2)cn1 [compound 21]
≥ 80%: mortality at 200 ppm (Tetranychus urticae; [4]) | percent effect (mortality or growth inhibition) at 200 ppm (Euschistus heros)

Cn1nc(OCC(F)(F)C(F)(F)C(F)(F)C(F)(F)C(F)(F)C(F)(F)C(F)(F)F)c(C(F)(F)F)c1-n1cc(-c2ccc(Cl)c(C(=O)NC3(C#N)CC3)c2)cn1 [compound 22]
≥ 80%: mortality at 200 ppm (Spodoptera littoralis) | mortality at 200 ppm (Plutella xylostella) | mortality at 200 ppm (Diabrotica balteata)

Cn1nc(OCCOC(F)(F)F)c(C(F)(F)F)c1-n1cc(-c2ccc(Cl)c(C(=O)NC3(C#N)CC3)c2)cn1 [compound 28]
≥ 80%: percent effect (mortality or growth inhibition) at 200 ppm (Euschistus heros) | mortality at 12 ppm (Myzus persicae; [5])

Cn1nc(OCCCCC(F)=C(F)F)c(C(F)(F)F)c1-n1cc(-c2ccc(Cl)c(C(=O)NC3CC3)c2)cn1 [compound 29]
≥ 80%: mortality at 200 ppm (Diabrotica balteata; [2])

Cn1nc(OCC(F)(F)C(F)(F)C(F)(F)C(F)(F)C(F)(F)C(F)(F)C(F)(F)F)c(C(F)(F)F)c1-n1cc(-c2ccc(Cl)c(C(=O)NC3CC3)c2)cn1 [compound 31]
≥ 80%: mortality at 200 ppm (Plutella xylostella)

Cn1nc(OS(=O)(=O)C(F)(F)C(F)(F)C(F)(F)C(F)(F)F)c(C(F)(F)F)c1-n1cc(-c2ccc(Cl)c(C(=O)NC3(C#N)CC3)c2)cn1 [compound 36]
≥ 80%: mortality at 200 ppm (Plutella xylostella) | mortality at 200 ppm (Diabrotica balteata) | mortality at 200 ppm (Thrips tabaci) | percent control (mortality or growth inhibition) at 200 ppm (Euschistus heros) | mortality at 12 ppm (Myzus persicae)

Cn1nc(OS(=O)(=O)C(F)(F)C(F)(F)C(F)(F)C(F)(F)F)c(C(F)(F)F)c1-n1cc(-c2ccc(Cl)c(C(=O)NC3CC3)c2)cn1 [compound 37]
≥ 80%: mortality at 200 ppm (Plutella xylostella) | mortality at 200 ppm (Diabrotica balteata) | mortality at 200 ppm (Thrips tabaci) | percent control (mortality or growth inhibition) at 200 ppm (Euschistus heros) | mortality at 12 ppm (Myzus persicae)

Cn1nc(OC(F)(F)C(F)(F)C(F)(F)C(F)(F)C(F)(F)C(F)(F)F)c(C(F)(F)F)c1-n1cc(-c2ccc(Cl)c(C(=O)NC3(C#N)CC3)c2)cn1 [compound 38]
≥ 80%: mortality at 200 ppm (Spodoptera littoralis) | mortality at 200 ppm (Plutella xylostella) | mortality at 200 ppm (Diabrotica balteata) | mortality at 200 ppm (Thrips tabaci) | percent control (mortality or growth inhibition) at 200 ppm (Euschistus heros)

Cn1nc(OC(F)(F)C(F)(F)C(F)(F)C(F)(F)C(F)(F)C(F)(F)F)c(C(F)(F)F)c1-n1cc(-c2ccc(Cl)c(C(=O)NC3CC3)c2)cn1 [compound 39]
≥ 80%: mortality at 200 ppm (Spodoptera littoralis) | mortality at 200 ppm (Plutella xylostella) | mortality at 200 ppm (Diabrotica balteata) | mortality at 200 ppm (Thrips tabaci) | mortality at 200 ppm (Tetranychus urticae) | percent control (mortality or growth inhibition) at 200 ppm (Euschistus heros)

Cn1nc(O/C(=C(/F)C(F)(F)F)C(F)(F)F)c(C(F)(F)F)c1-n1cc(-c2ccc(Cl)c(C(=O)NC3(C#N)CC3)c2)cn1 [compound 42]
≥ 80%: percent control (mortality, anti-feedant effect or growth inhibition) at 200 ppm (Spodoptera littoralis) | mortality at 200 ppm (Plutella xylostella; [1]) | mortality at 200 ppm (Diabrotica balteata; [2]) | percent effect (mortality or growth inhibition) at 200 ppm (Euschistus heros)

Cn1nc(OCCC(F)=C(F)F)c(C(F)(F)F)c1-n1cc(-c2ccc(Cl)c(C(=O)NC3(C#N)CC3)c2)cn1 [compound 46]
≥ 80%: percent control (mortality, anti-feedant effect or growth inhibition) at 200 ppm (Spodoptera littoralis) | mortality at 200 ppm (Plutella xylostella; [1]) | mortality at 200 ppm (Thrips tabaci; [3])

Cn1nc(O/C(=C\F)C(F)(F)F)c(C(F)(F)F)c1-n1cc(-c2ccc(Cl)c(C(=O)NC3(C#N)CC3)c2)cn1 [compound 49]
≥ 80%: percent control (mortality, anti-feedant effect or growth inhibition) at 200 ppm (Spodoptera littoralis) | mortality at 200 ppm (Tetranychus urticae; [4]) | percent effect (mortality or growth inhibition) at 200 ppm (Euschistus heros) | mortality at 12 ppm (Myzus persicae; [5])

Cn1nc(OC(F)=C(F)C(F)(F)F)c(C(F)(F)F)c1-n1cc(-c2ccc(Cl)c(C(=O)NC3(C#N)CC3)c2)cn1 [compound 52]
≥ 80%: mortality at 200 ppm (Thrips tabaci; [3]) | mortality at 200 ppm (Tetranychus urticae; [4]) | percent effect (mortality or growth inhibition) at 200 ppm (Euschistus heros) | mortality at 12 ppm (Myzus persicae; [5])

Cn1nc(SCCC(F)(F)C(F)(F)C(F)(F)C(F)(F)C(F)(F)C(F)(F)F)c(Br)c1-n1cc(-c2ccc(Cl)c(C(=O)NC3CC3)c2)cn1 [compound 54]
≥ 80%: mortality at 200 ppm (Spodoptera littoralis) | mortality at 200 ppm (Plutella xylostella)

COc1nn(C)c(-n2cc(-c3ccc(Cl)c(C(=O)N(C)C4(C#N)CC4)c3)cn2)c1C(F)(F)F [compound 56]
≥ 80%: mortality at 200 ppm (Plutella xylostella; [1]) | mortality at 200 ppm (Diabrotica balteata; [2]) | mortality at 12 ppm (Myzus persicae; [5])

Cn1nc(SCC(F)(F)C(F)F)c(Br)c1-n1cc(-c2ccc(Cl)c(C(=O)NC3CC3)c2)cn1 [compound 57]
≥ 80%: percent control (mortality, anti-feedant effect or growth inhibition) at 200 ppm (Spodoptera littoralis)

Cn1nc(OC(Cl)(Cl)C(Cl)=C(Cl)Cl)c(C(F)(F)F)c1-n1cc(-c2ccc(Cl)c(C(=O)NC3CC3)c2)cn1 [compound 67]
≥ 80%: mortality at 200 ppm (Diabrotica balteata; [2]) | mortality at 200 ppm (Thrips tabaci; [3])

Cn1nc(OC(F)(F)C(F)C(F)(F)F)c(C(F)(F)F)c1-n1cc(-c2cccc(C(=O)NC3CC3)c2F)cn1 (stereo not shown) [compound 68]
≥ 80%: percent control (mortality, anti-feedant effect or growth inhibition) at 200 ppm (Spodoptera littoralis) | mortality at 200 ppm (Diabrotica balteata; [2]) | mortality at 200 ppm (Thrips tabaci; [3]) | mortality at 200 ppm (Tetranychus urticae; [4])
